Like-named read-outs stand apart in the source and are kept apart here.
Assays:
Type in all cases: binding
[1] = target: T1, DNA-dependent protein kinase (DNA-PK) (Homo sapiens, UniProt P78527); experiment: kinobeads assay, DNA-PK (dot blot detection)
T1 construct: endogenous in cells; host or cells: Jurkat cells (ATCC TIB-152, clone E6-1), lysate
Protocol: (§1) The compounds of the present invention as described were tested in the mTOR kinobeads assay as described below. Briefly, test compounds (at various concentrations) and the affinity matrix (1:1 mixture of beads with immobilized phenylthiazole ligand 1 and beads with immobilized phenylmorpholin-chromen ligand; WO 2009/098021) were added to cell lysate aliquots and allowed to bind to the proteins in the lysate sample. After the incubation time the beads with captured proteins were separated from the lysate. Bound proteins were then eluted and the presence of mTOR, PI3K delta (PI3 Kd) and DNA-dependent protein kinase (DNA-PK) was detected and quantified using a specific antibody in a dot blot procedure and the Odyssey infrared detection system. Dose response curves for individual kinases were generated and IC50 values calculated. Kinobeads assays for PI3 kinases (WO-A 2008/015013) and for kinase selectivity profiling (WO 2009/098021) have been previously described.
(§2) The affinity matrix (beads with immobilized phenylmorpholin-chromen ligand) was washed two times with 15 ml of 1×DP buffer containing 0.2% NP40 (IGEPAL® CA-630, Sigma, #13021) and then resupended in 5.5 ml of 1×DP buffer containing 0.2% NP40 (10% beads slurry).
(§3) 5×DP buffer: 250 mM Tris-HCl pH 7.4, 25% Glycerol, 7.5 mM MgCl2, 750 mM NaCl, 5 mM Na3VO4, filter the 5×-lysis buffer through 0.22 μm filter and store in aliquots at −80° C. The 5×DP buffer is diluted to 1×DP buffer containing 1 mM DTT and 25 mM NaF.
(§4) Stock solutions of test compounds were prepared in DMSO. In a 96 well plate 30 μl solution of diluted test compounds at 5 mM in DMSO were prepared. Starting with this solution a 1:3 dilution series (9 steps) was prepared. For control experiments (no test compound) a buffer containing 2% DMSO was used. Compound CZC00018052 served as a positive control (PI-103; Calbiochem catalogue number 528100).
(§5) Jurkat cells (ATCC catalogue number TIB-152 Jurkat, clone E6-1) were grown in 1 litre Spinner flasks (Integra Biosciences, #182101) in suspension in RPMI 1640 medium (Invitrogen, #21875-034) supplemented with 10% Fetal Bovine Serum (Invitrogen) at a density between 0.15×10^6 and 1.2×10^6 cells/ml. Cells were harvested by centrifugation, washed once with 1×PBS buffer (Invitrogen, #14190-094) and cell pellets were frozen in liquid nitrogen and subsequently stored at −80° C.
(§6) Jurkat cells were homogenized in a Potter S homogenizer in lysis buffer: 50 mM Tris-HCl, 0.8% NP40, 5% glycerol, 150 mM NaCl, 1.5 mM MgCl2, 25 mM NaF, 1 mM sodium vanadate, 1 mM DTT, pH 7.5. One complete EDTA-free tablet (protease inhibitor cocktail, Roche Diagnostics, 1873580) per 25 ml buffer was added. The material was dounced 10 times using a mechanized POTTER S, transferred to 50 ml falcon tubes, incubated for 30 minutes on ice and spun down for 10 min at 20,000 g at 4° C. (10,000 rpm in Sorvall SLA600, precooled). The supernatant was transferred to an ultracentrifuge (UZ)-polycarbonate tube (Beckmann, 355654) and spun for 1 hour at 100.000 g at 4° C. (33.500 rpm in Ti50.2, precooled). The supernatant was transferred again to a fresh 50 ml falcon tube, the protein concentration was determined by a Bradford assay (BioRad) and samples containing 50 mg of protein per aliquot were prepared. The samples were immediately used for experiments or frozen in liquid nitrogen and stored frozen at −80° C.
(§7) Jurkat cell lysate (approximately 50 mg protein per plate) was thawed in a water bath at room temperature and then kept on ice. To the thawed cell lysate 1×DP 0.8% NP40 buffer containing protease inhibitors (1 tablet for 25 ml buffer; EDTA-free protease inhibitor cocktail; Roche Diagnostics 1873580) was added in order to reach a final protein concentration of 5 mg/ml total protein. The diluted cell lysate was stored on ice. […]

PI3K delta (PI3Kd) = target: T2, PI3K delta (PI3Kd) (Homo sapiens, UniProt O00329); experiment: kinobeads assay, PI3K delta (dot blot detection)
T2 construct: endogenous in cells; host or cells: Jurkat cells (ATCC TIB-152, clone E6-1), lysate
Protocol: as §1, §2, §3, §4, §5, §6, §7

mTOR = target: T3, mTOR (Homo sapiens, UniProt P42345); experiment: mTOR kinobeads assay (dot blot detection)
T3 construct: endogenous in cells; host or cells: Jurkat cells (ATCC TIB-152, clone E6-1), lysate
Protocol: as §1, §2, §3, §4, §5, §6, §7

[2] = Table 2, Jurkat cell lysate, read-out: Inhibition values (IC50) DNAPK
[3] = Table 4, read-out: Inhibition values (IC50) DNAPK
[4] = Table 2, Jurkat cell lysate, read-out: Inhibition values (IC50) PI3Kd
[5] = Table 4, read-out: Inhibition values (IC50) PI3Kd
[6] = Table 2, Jurkat cell lysate, read-out: Inhibition values (IC50) mTor
[7] = Table 4, read-out: Inhibition values (IC50) mTOR

Measured: IC50

T1 sequence (P78527 whole entry): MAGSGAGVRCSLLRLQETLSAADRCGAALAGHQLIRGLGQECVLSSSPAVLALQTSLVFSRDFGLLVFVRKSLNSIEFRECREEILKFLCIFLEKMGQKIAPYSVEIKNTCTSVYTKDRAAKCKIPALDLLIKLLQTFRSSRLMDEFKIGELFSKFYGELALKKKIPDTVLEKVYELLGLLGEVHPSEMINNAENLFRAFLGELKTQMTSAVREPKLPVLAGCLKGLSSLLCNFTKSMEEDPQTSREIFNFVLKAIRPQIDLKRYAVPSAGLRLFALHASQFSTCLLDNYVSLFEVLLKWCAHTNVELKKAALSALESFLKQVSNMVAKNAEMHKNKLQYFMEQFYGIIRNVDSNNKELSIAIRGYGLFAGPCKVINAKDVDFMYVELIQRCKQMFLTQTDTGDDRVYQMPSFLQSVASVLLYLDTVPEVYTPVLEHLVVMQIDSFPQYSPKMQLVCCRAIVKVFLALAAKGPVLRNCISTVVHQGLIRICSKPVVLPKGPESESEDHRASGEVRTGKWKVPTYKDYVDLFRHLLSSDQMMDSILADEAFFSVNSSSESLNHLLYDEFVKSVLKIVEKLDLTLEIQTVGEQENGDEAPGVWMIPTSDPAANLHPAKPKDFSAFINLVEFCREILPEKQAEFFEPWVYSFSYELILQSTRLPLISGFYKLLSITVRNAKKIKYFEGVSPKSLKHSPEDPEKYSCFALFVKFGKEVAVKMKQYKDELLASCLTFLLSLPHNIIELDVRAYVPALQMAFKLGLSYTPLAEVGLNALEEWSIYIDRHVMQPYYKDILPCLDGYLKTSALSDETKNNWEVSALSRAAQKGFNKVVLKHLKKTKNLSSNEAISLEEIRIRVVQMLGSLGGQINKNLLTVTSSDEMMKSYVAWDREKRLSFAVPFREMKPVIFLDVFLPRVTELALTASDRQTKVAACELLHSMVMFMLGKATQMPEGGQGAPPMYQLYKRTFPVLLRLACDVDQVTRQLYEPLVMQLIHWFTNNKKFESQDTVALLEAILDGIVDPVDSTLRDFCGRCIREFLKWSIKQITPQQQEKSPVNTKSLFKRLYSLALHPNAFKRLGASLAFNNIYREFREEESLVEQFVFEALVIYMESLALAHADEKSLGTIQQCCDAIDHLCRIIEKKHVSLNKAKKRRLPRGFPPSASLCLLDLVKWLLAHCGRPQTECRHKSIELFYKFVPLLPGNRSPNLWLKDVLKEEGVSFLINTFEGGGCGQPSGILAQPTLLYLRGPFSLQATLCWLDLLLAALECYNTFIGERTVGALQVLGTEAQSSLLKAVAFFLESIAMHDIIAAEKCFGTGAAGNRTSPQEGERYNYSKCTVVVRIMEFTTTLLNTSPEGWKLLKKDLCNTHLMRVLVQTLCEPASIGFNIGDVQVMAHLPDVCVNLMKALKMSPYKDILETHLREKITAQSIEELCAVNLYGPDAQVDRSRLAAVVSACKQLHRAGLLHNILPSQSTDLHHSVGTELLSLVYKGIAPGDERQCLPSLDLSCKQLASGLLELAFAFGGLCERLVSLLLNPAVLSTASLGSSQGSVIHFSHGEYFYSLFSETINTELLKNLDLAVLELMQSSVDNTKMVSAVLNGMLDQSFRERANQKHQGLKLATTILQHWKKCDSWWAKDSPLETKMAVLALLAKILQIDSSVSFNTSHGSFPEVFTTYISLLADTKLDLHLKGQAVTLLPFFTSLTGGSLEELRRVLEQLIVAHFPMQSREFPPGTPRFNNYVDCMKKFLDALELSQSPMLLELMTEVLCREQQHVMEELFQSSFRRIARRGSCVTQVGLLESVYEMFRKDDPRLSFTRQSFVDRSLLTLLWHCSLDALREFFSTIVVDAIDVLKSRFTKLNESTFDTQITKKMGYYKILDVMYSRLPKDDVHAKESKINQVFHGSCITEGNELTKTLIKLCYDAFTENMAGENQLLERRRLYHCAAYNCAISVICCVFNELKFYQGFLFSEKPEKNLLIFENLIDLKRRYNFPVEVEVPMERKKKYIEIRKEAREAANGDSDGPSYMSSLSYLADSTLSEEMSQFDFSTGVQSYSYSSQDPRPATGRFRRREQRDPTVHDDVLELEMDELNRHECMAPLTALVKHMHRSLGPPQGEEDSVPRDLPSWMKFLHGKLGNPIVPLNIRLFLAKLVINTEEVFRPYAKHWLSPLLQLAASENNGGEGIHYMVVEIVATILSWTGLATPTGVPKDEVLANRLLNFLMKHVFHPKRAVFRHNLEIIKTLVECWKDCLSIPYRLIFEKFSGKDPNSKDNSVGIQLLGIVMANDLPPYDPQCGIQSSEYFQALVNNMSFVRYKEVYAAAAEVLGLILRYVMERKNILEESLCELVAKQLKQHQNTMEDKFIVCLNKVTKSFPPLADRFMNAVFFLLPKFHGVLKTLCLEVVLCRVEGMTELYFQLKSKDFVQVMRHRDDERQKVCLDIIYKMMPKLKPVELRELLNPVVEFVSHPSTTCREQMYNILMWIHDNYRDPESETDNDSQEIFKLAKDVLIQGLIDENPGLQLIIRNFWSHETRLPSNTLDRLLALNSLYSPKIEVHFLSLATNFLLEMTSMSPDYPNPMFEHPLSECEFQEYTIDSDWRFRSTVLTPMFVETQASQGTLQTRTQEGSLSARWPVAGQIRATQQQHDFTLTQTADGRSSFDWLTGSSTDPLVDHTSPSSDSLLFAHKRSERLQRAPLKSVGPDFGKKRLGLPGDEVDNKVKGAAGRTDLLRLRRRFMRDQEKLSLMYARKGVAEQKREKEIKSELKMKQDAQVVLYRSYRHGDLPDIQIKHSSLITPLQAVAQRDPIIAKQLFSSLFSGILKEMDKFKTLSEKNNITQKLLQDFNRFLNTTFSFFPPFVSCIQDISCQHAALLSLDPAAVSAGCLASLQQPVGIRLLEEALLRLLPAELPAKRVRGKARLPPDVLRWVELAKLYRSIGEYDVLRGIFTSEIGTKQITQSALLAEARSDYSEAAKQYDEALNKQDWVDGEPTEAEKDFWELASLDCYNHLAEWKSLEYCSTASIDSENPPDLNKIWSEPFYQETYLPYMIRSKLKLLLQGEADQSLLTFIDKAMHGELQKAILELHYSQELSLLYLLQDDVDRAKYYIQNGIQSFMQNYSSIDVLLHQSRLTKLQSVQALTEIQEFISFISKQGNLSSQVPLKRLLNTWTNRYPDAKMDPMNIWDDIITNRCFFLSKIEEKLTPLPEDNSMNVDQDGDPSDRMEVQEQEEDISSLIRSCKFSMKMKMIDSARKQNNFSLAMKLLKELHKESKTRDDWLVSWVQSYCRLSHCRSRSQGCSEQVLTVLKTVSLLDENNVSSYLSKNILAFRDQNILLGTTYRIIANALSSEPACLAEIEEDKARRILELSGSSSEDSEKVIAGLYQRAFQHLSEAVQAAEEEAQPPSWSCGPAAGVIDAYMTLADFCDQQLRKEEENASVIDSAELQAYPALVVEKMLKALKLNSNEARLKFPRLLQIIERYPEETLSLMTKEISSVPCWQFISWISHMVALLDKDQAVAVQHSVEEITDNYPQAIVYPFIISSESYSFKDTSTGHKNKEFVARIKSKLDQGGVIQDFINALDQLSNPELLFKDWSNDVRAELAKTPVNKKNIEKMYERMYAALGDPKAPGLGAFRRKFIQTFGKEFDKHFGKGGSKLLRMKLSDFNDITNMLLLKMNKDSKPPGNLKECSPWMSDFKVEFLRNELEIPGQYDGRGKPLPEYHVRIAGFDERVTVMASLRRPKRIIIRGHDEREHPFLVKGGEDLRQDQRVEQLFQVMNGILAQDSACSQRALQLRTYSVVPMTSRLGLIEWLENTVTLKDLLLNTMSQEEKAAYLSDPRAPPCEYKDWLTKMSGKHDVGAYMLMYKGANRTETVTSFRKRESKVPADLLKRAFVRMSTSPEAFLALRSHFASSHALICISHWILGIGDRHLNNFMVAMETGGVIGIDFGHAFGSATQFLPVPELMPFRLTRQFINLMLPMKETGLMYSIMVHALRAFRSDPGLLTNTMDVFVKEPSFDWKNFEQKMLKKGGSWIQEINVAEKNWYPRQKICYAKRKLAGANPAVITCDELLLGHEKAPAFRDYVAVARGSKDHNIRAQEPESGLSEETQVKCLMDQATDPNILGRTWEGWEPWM

O=C(Nc1ccc(-c2cc(-c3cccnc3)nc(N3CCOCC3)n2)cc1)NC1CC1 [Example 1, 1-cyclopropyl-3-(4-(2-morpholino-6-(pyridin-3-yl)pyrimidin-4-yl)phenyl)urea]
1 to 10 µM: mTOR; [6] | mTOR; [7]
≥ 10 µM: [1]; [2] | [1]; [3] | PI3K delta (PI3Kd); [4] | PI3K delta (PI3Kd); [5]

C[C@H]1COCCN1c1cc(-c2cccc(S(C)(=O)=O)c2)nc(-c2ccc(NC(=O)NC3CC3)cc2)n1 [Example 5, (S)-1-cyclopropyl-3-(4-(4-(3-methylmorpholino)-6-(3-(methylsulfonyl)phenyl)pyrimidin-2-yl)phenyl)urea]
1 to 10 µM: mTOR; [6] | mTOR; [7]
≥ 10 µM: [1]; [2] | [1]; [3] | PI3K delta (PI3Kd); [4] | PI3K delta (PI3Kd); [5]

CCNC(=O)Nc1ccc(-c2cc(-c3ccccc3NS(C)(=O)=O)nc(N3CCOC[C@@H]3C)n2)cc1 [Example 9, (S)—N-(2-(6-(4-(3-ethylureido)phenyl)-2-(3-methylmorpholino)pyrimidin-4-yl)phenyl)methanesulfonamide]
1 to 10 µM: mTOR; [6] | mTOR; [7]
≥ 10 µM: [1]; [2] | [1]; [3] | PI3K delta (PI3Kd); [4] | PI3K delta (PI3Kd); [5]

CCNC(=O)Nc1ccc(-c2cc(-c3ccccc3NC(C)=O)nc(N3CCOC[C@@H]3C)n2)cc1 [Example 10, (S)—N-(2-(6-(4-(3-ethylureido)phenyl)-2-(3-methylmorpholino)pyrimidin-4-yl)phenyl)acetamide]
≥ 10 µM: [1]; [2] | [1]; [3] | PI3K delta (PI3Kd); [4] | PI3K delta (PI3Kd); [5]
1 to 10 µM: mTOR; [6] | mTOR; [7]

CCNC(=O)Nc1ccc(-c2cc(-c3ccccc3C(=O)O)nc(N3CCOC[C@@H]3C)n2)cc1 [Example 11, (S)-2-(6-(4-(3-ethylureido)phenyl)-2-(3-methylmorpholino)pyrimidin-4-yl)benzoic acid]
≥ 10 µM: [1]; [2] | [1]; [3] | PI3K delta (PI3Kd); [4] | PI3K delta (PI3Kd); [5]
1 to 10 µM: mTOR; [6] | mTOR; [7]

CCNC(=O)Nc1ccc(-c2cc(-c3ccccc3C(N)=O)nc(N3CCOC[C@@H]3C)n2)cc1 [Example 12, (S)-2-(6-(4-(3-ethylureido)phenyl)-2-(3-methylmorpholino)pyrimidin-4-yl)benzamide]
1 to 10 µM: mTOR; [6] | mTOR; [7]
≥ 10 µM: [1]; [2] | [1]; [3] | PI3K delta (PI3Kd); [4] | PI3K delta (PI3Kd); [5]

CCNC(=O)Nc1ccc(-c2cc(-c3ccncc3)nc(N3CCOC[C@@H]3C)n2)cc1 [Example 13, (S)-1-ethyl-3-(4-(2-(3-methylmorpholino)-6-(pyridin-4-yl)pyrimidin-4-yl)phenyl)urea]
1 to 10 µM: mTOR; [6] | mTOR; [7]
≥ 10 µM: [1]; [2] | [1]; [3] | PI3K delta (PI3Kd); [4] | PI3K delta (PI3Kd); [5]

CCNC(=O)Nc1ccc(-c2cc(-c3ccccc3CO)nc(N3CCOC[C@@H]3C)n2)cc1 [Example 16, (S)-1-ethyl-3-(4-(6-(2-(hydroxymethyl)phenyl)-2-(3-methylmorpholino)pyrimidin-4-yl)phenyl)urea]
≥ 10 µM: [1]; [2] | [1]; [3] | PI3K delta (PI3Kd); [4] | PI3K delta (PI3Kd); [5]
1 to 10 µM: mTOR; [6] | mTOR; [7]

CCNC(=O)Nc1ccc(-c2cc(-c3cc[nH]n3)nc(N3CCOC[C@@H]3C)n2)cc1 [Example 18, (S)-1-ethyl-3-(4-(2-(3-methylmorpholino)-6-(1H-pyrazol-3-yl)pyrimidin-4-yl)phenyl)urea]
≥ 10 µM: [1]; [2] | [1]; [3] | PI3K delta (PI3Kd); [4] | PI3K delta (PI3Kd); [5]
1 to 10 µM: mTOR; [6] | mTOR; [7]

CCNC(=O)Nc1ccc(-c2cc(-c3ccccc3S(=O)(=O)NC)nc(N3CCOCC3)n2)cc1 [Example 19, 2-(6-(4-(3-ethylureido)phenyl)-2-morpholinopyrimidin-4-yl)-N-methylbenzenesulfonamide]
1 to 10 µM: mTOR; [6] | mTOR; [7]
≥ 10 µM: [1]; [2] | [1]; [3] | PI3K delta (PI3Kd); [4] | PI3K delta (PI3Kd); [5]

CCNC(=O)Nc1ccc(-c2cc(-c3ccccc3S(C)(=O)=O)nc(N3CCOCC3)n2)cc1 [Example 20, 1-ethyl-3-(4-(6-(2-(methylsulfonyl)phenyl)-2-morpholinopyrimidin-4-yl)phenyl)urea]
≥ 10 µM: [1]; [2] | [1]; [3] | PI3K delta (PI3Kd); [4] | PI3K delta (PI3Kd); [5]
1 to 10 µM: mTOR; [6] | mTOR; [7]

CNC(=O)Nc1ccc(-c2nccc(N3CCOCC3)n2)cc1 [Example 27, 1-methyl-3-(4-(4-morpholinopyrimidin-2-yl)phenyl)urea]
1 to 10 µM: [1]; [2] | [1]; [3] | PI3K delta (PI3Kd); [4] | PI3K delta (PI3Kd); [5] | mTOR; [6] | mTOR; [7]

CCCNC(=O)Nc1ccc(-c2ccnc(N3CCOCC3)n2)cc1 [Example 31, 1-propyl-3-(4-(2-morpholinopyrimidin-4-yl)phenyl)urea]
1 to 10 µM: [1]; [2] | [1]; [3] | mTOR; [6] | mTOR; [7]
≥ 10 µM: PI3K delta (PI3Kd); [4] | PI3K delta (PI3Kd); [5]

CCCNC(=O)Nc1ccc(-c2nccc(N3CCOCC3)n2)cc1 [Example 32, 1-(4-(4-morpholinopyrimidin-2-yl)phenyl)-3-propylurea]
≥ 10 µM: PI3K delta (PI3Kd); [4] | PI3K delta (PI3Kd); [5]
1 to 10 µM: [1]; [2] | [1]; [3] | mTOR; [6] | mTOR; [7]

NC(=O)Nc1ccc(-c2nccc(N3CCOCC3)n2)cc1 [Example 33, 1-(4-(4-morpholinopyrimidin-2-yl)phenyl)urea]
1 to 10 µM: [1]; [2] | [1]; [3] | PI3K delta (PI3Kd); [4] | PI3K delta (PI3Kd); [5] | mTOR; [6] | mTOR; [7]

CCNC(=O)Nc1ccc(-c2nccc(N3CCOCC3)n2)cc1 [Example 36, 1-ethyl-3-(4-(4-morpholinopyrimidin-2-yl)phenyl)urea]
≥ 10 µM: PI3K delta (PI3Kd); [4] | PI3K delta (PI3Kd); [5]
1 to 10 µM: [1]; [2] | [1]; [3] | mTOR; [6] | mTOR; [7]

Source: patent publication US9249129B2, “Morpholino substituted urea derivatives as mTOR inhibitors” (CELLZOME LIMITED, priority 2010, dated 2016)
